The text below walks through data of patent US8445502B2, “Pharmaceutical formulations comprising salts of a protein kinase inhibitor and methods of using same” (Astex Pharmaceuticals, Inc., priority 2007, dated 2013).

In one data set the test system is SB-CL2 melanoma cells. Description: SB-CL2 melanoma tumor model in athymic nude mice. Type of data set: in vivo. The following applies: IP 50 & 75 mg/kg, qd × 5, TV-10. As for the experimental part: MP470 and MP470 HCl were tested against different tumor types in athymic nude mice as summarized below (Table 8). Various formulations and routes were evaluated. HT-29 colorectal cancer cells and SB-CL2 melanoma cells were implanted subcutaneously, while A549 lung cancer cells, MiaPaCa-2 pancreatic cancer cells, TT medullary thyroid cancer cells, and OVCAR-3 ovarian cancer cells were implanted […] in the hind flank of mice. All animals were allowed to develop medium-sized (80-125 mg) tumors, before initiation of dosing. Tumor volume and mouse bodyweight were followed over the course of the study.

Data set [1] can be described thus: pKa by mixed-solvent (methanol-water) method. Type of data set: physicochemical. The procedure:
The apparent pKa in aqueous solution was extrapolated from the determined pKa values (the apparent ionization constants in methanol-water solvent) plotted versus the percent methanol used. The apparent pKa of MP470 was determined to be 6.7.

In data set [2] the test system is SF-767 glioblastoma multiforme cells. Description: MTS cell death assay with ionizing radiation. The class given is cell-based. As for the experimental part: SF-767 glioblastoma multiforme cells were treated with MP470 at 1 μM, 800c Gy IR (ionizing radiation), or a combination of both.
Background: Formazan colour is commonly taken as a measure of viable cells.

Data set [3] is described as follows: Solubility of MP470.HCl in common solvents at room temperature. Type of data set: physicochemical.
The conditions of data set [4]: rat, in vivo. The procedure: Twenty-four rats were placed into four groups each consisting of three animals per sex. The animals were weighed the day before dosing, as well as just prior to dosing.
After intravenous infusion of MP470.HCl at 5 mg/kg, average MP470 peak plasma concentrations of 454.3 ng/mL for males and 370.7 ng/mL for females were attained at 0.083 hours (5 minutes), the first sampling point postdose. After oral administration of non-micronized MP470.HCl, peak plasma concentrations of MP470 were attained at 0.5-12 hours for Group 2 (25 mg/kg) and 4-12 hours for Group 3 (100 mg/kg, suspension). The extent of systemic exposure of rats to MP470, characterized by AUCO-∞, was approximately 3.8-fold and 2.9-fold higher in females than in males for Groups 2 and 3, respectively. Average AUCO-∞ values were higher at 100 mg/kg than at 25 mg/kg and the increases in AUCO-∞ were greater than dose-proportional.
After oral administration of micronized MP470.HCl (Group 4), peak plasma concentrations of MP470 were attained at 4-12 hours. The extent of systemic exposure of rats to MP470, characterized by AUCO-∞, was approximately 3.4-fold higher in females than in males for Group 4. The extent of exposure of rats to MP470, characterized by AUCO-∞, was 1.7-fold (males) and 1.4-fold (females) higher for non-micronized MP470 HCl (Group 3) than for micronized MP470 HCl (Group 4).

Data set [5] relates to Erk phosphorylation in Panc-1 Pancreas Cancer Cells. Description: Erk phosphorylation after PMA stimulation. The class given is cell-based. The following applies: PMA-stimulated cells; compared to PMA alone and PD98059; hydrochloride. From the text:
FIG. 11 illustrates the Erk phosphorylation changes in Panc-1 Pancreas Cancer Cells after MP470 hydrochloride exposure
Regulation of Erk phosphorolation—MP470.HCl activity was screened against potential biomarkers, including proteins, such as Erk that are activated downstream of c-Kit. Erk was selected from potential candidate markers to evaluate changes in protein phosphorylation in treated cancer cell lines because MP470 appeared to regulate this event. […] Exposure to PMA is known to rapidly stimulate Erk phosphorylation and was used as a positive control.

In another data set the test system is DMS-114 SCLC cells. As to the kind of experiment: Sensitization of SCLC cells to etoposide. The class given is cell-based. To be noted: Homo sapiens; DMS-114, single agent. The procedure:
(§1) Therefore, to determine if MP470 would increase sensitivity to etoposide treatment, SCLC cells were treated with the agents individually and in combination. […] Two sub-IC50 doses of MP470.HCl were tested in combination with etoposide to evaluate possible synergism and a resulting lower IC50 value for etoposide in each of the cell lines.

The subject of a further data set is DMS-153 SCLC cells. As to the kind of experiment: Sensitization of SCLC cells to etoposide. The class given is cell-based. The following applies: Homo sapiens; DMS-153, single agent. The procedure:
as §1

Each structure is given as a SMILES string. “Also recorded” adds a separate entry of the source. Like-named read-outs stand apart in the source and are kept apart here. Bounds are passed on as bounds.

Turning to `S=C(NCc1ccc2c(c1)OCO2)N1CCN(c2ncnc3c2oc2ccccc23)CC1` [MP470, 4-[1]benzofuro[3,2-d]pyrimidin-4-yl-N-(1,3-benzodioxol-5-ylmethyl)piperazine-1-carbothioamide], the “Outcome: tumor growth” value in the data set on SB-CL2 melanoma cells is “Dose dependency”. Further, the “pKa (apparent ionization constant)” value in data set [1] (30% (v/v) methanol) is 6.81; in data set [1] (60% (v/v) methanol), 7.09; in data set [1] (90% (v/v) methanol) it was 7.10. Besides, the “apparent pKa” value in data set [1] (aqueous solution, extrapolated from pKa values in methanol-water) was 6.7. For the same molecule, the “Increase in cell death over either agent alone” value in data set [2] (MP470 1 μM combined with 800c Gy ionizing radiation) is “more than two-fold”. Moreover, the “Cell death (MTS assay)” value in data set [2] (MP470 at 1 μM alone) is on record as “will induce cell death”.

Usually Solubility stands for the dissolved amount per volume that the medium holds. A high value points to a readily soluble substance. For orientation: IC50 means the point on the concentration scale where inhibition reaches its midpoint. With `Cl.S=C(NCc1ccc2c(c1)OCO2)N1CCN(c2ncnc3c2oc2ccccc23)CC1` [MP470.HCl, 4-[1]benzofuro[3,2-d]pyrimidin-4-yl-N-(1,3-benzodioxol-5-ylmethyl)piperazine-1-carbothioamide hydrochloride], the “Solubility” value in data set [3] (Benzyl alcohol) came to 48000 µg/mL; in data set [3] (DMF), 9000 µg/mL; in data set [3] (DMSO) it was 17000 µg/mL; in data set [3] (Ethanol) it was 400 µg/mL; in data set [3] (Glycerol), 4000 µg/mL; in data set [3] (Methanol), 3000 µg/mL. Further, the “Solubility” value in data set [3] (Propylene glycol) was found to be 4000 µg/mL. Further, the “Solubility (mg/mL)” value in data set [3] (Water) is reported as “< detectable limit by HPLC”. In addition, the results for the “Bioavailability (%)” value in data set [4] (female) and in data set [4] (male) were 100.21% and 43.40%, respectively. The “AUC INF” value in data set [4] (female, iv, 5 mg/kg) is 2530.9 ng·h/mL; in data set [4] (female, po, 25 mg/kg) it was 12681.6 ng·h/mL; in data set [4] (male, iv, 5 mg/kg), 1546.3 ng·h/mL; in data set [4] (male, po, 25 mg/kg), 3355.1 ng·h/mL. For the same molecule, the “t1/2” value lay in the range of 2.6 to 2.9 h in data set [4] (female, iv, 5 mg/kg); 4.0 to 17.4 h in data set [4] (female, po, 25 mg/kg); 3.1 to 4.4 h in data set [4] (male, iv, 5 mg/kg); 2.8 to 4.2 h in data set [4] (male, po, 25 mg/kg). Moreover, the “level of Erk phosphorylation (P-Erk)” value in data set [5] is listed as “reduced the level of Erk phosphorylation; also recorded: reduced the level of P-Erk below that of PD98059”. For the same molecule, the IC50 in the data set on DMS-114 SCLC cells was 0.98 µM; in the data set with DMS-153 SCLC cells, 5.14 µM.
